Assay results: ChEMBL document CHEMBL4184333, “Expanding Benzoxazole-Based Inosine 5'-Monophosphate Dehydrogenase (IMPDH) Inhibitor Structure-Activity As Potential Antituberculosis Agents” (J Med Chem, 2018)
In brackets after ≈: the same amount, converted by molar mass. Activity calls are given as the source filed them. No cut-off for these calls is given here.

Assays:
[1] = target: Inosine-5'-monophosphate dehydrogenase 2 (Homo sapiens, UniProt P12268); assay: Inhibition of human IMPDH2 using IMP as substrate by spectrophotometric method; conditions: read-out: Ki(app)
GMP reductase 2 = target: T1, GMP reductase 2 (Homo sapiens, UniProt Q9P2T1); assay: Inhibition of human GMPR2 using GMP as substrate by spectrophotometric method; conditions: read-out: Ki(app)
T1 sequence (Q9P2T1 whole entry): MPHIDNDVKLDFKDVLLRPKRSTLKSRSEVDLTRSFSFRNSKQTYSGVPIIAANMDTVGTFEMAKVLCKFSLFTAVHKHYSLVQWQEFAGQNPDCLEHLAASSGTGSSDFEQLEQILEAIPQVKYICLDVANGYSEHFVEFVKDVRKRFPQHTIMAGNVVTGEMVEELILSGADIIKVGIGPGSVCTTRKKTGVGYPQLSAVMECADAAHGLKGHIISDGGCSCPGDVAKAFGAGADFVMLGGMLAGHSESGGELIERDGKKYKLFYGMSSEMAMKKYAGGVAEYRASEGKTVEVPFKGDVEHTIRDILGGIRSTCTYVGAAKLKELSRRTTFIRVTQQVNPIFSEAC

[2] = tested on: Mycobacterium tuberculosis; assay: Antitubercular activity against Mycobacterium tuberculosis H37Rv ATCC 27294 using 7H9/ADC/Tween medium after 1 week in presence of guanine by broth microdilution method; format: functional; conditions: H37Rv ATCC 27294, 168 h
[3] = tested on: Mycobacterium tuberculosis; assay: Antitubercular activity against Mycobacterium tuberculosis H37Rv ATCC 27294 using GAST/Fe medium after 1 week in presence of guanine by broth microdilution method; format: functional; conditions: H37Rv ATCC 27294, 168 h
[4] = tested on: Mycobacterium tuberculosis; assay: Antitubercular activity against Mycobacterium tuberculosis H37Rv ATCC 27294 using 7H9/ADC/Tween medium after 1 week in absence of guanine by broth microdilution method; format: functional; conditions: H37Rv ATCC 27294, 168 h
[5] = tested on: Mycobacterium tuberculosis; assay: Antitubercular activity against Mycobacterium tuberculosis H37Rv ATCC 27294 using GAST/Fe medium after 1 week in absence of guanine by broth microdilution method; format: functional; conditions: H37Rv ATCC 27294, 168 h
[6] = tested on: Mycobacterium tuberculosis; assay: Antitubercular activity against Mycobacterium tuberculosis H37Rv ATCC 27294 using GAST/Fe medium after 2 weeks in absence of guanine by broth microdilution method; format: functional, organism-based

Work on `COc1ccc(-c2nc3cc(NC(=O)[C@H](C)Oc4cccc(F)c4F)ccc3o2)cn1` yielded a Ki [1] greater than 5 µM, a Ki (GMP reductase 2) greater than 5 µM and an MIC [2] greater than 50 µM. The MIC [3] was 8 µM, the MIC [4] was greater than 50 µM and the MIC [5] was 6 µM (≈ 2.55 µg/mL).
`C[C@H](Oc1ccc(F)c(F)c1F)C(=O)Nc1ccc2oc(-c3ccc(C#N)cc3)nc2c1` showed a Ki [1] greater than 5 µM, a Ki (GMP reductase 2) greater than 5 µM and an MIC [2] greater than 50 µM. For the same compound, the MIC [3] was greater than 50 µM, the MIC [4] was greater than 50 µM and the MIC [5] was greater than 50 µM.
Work on `C[C@H](Oc1ccccc1C#N)C(=O)Nc1ccc2oc(-c3ccncc3)nc2c1` yielded a Ki [1] greater than 5 µM and a Ki (GMP reductase 2) greater than 5 µM.
With `COc1ccc(-c2nc3cc(NC(=O)[C@H](C)Oc4ccccc4CN)ccc3o2)cc1` the Ki [1] was greater than 5 µM, the Ki (GMP reductase 2) was greater than 5 µM and the MIC [2] was 9.4 µM. It also gave an MIC [3] of 16 µM, an MIC [4] of 5.5 µM (≈ 2.3 µg/mL) and an MIC [5] of 9.4 µM (≈ 3.92 µg/mL).
`C[C@H](Oc1cccc(Cl)c1Cl)C(=O)Nc1ccc2oc(-c3ccc(-c4noc(=O)[nH]4)cc3)nc2c1` was tested, and the Ki [1] was greater than 5 µM and the Ki (GMP reductase 2) was greater than 5 µM.
Work on `C[C@H](Oc1cccc(Cl)c1Cl)C(=O)Nc1ccc2oc(-c3ccc(C(=O)NN)cc3)nc2c1` yielded a Ki [1] greater than 5 µM and a Ki (GMP reductase 2) greater than 5 µM.
`C[C@H](Oc1ccccc1O)C(=O)Nc1ccc2oc(-c3ccc(C#N)cc3)nc2c1` was tested, and the Ki [1] was greater than 5 µM, the Ki (GMP reductase 2) was greater than 5 µM and the MIC [2] was 22 µM. The MIC [3] was 25 µM, the MIC [4] was 9.4 µM (≈ 3.75 µg/mL) and the MIC [5] was 22 µM (≈ 8.79 µg/mL).
`C[C@H](Nc1cccc(Cl)c1Cl)C(=O)Nc1ccc2oc(-c3ccncc3)nc2c1` showed a Ki [1] greater than 5 µM, a Ki (GMP reductase 2) greater than 5 µM and an MIC [2] of 35 µM. The MIC [3] was 50 µM, the MIC [4] was 12 µM (≈ 5.13 µg/mL) and the MIC [5] was 6.7 µM (≈ 2.86 µg/mL).
`COc1ccc(-c2cn3cc(NC(=O)[C@H](C)Oc4cccc(Cl)c4Cl)ccc3n2)cc1` was tested, and the Ki [1] was greater than 5 µM and the Ki (GMP reductase 2) was greater than 5 µM.
For `C[C@H](Oc1cccc(Cl)c1Cl)C(=O)Nc1ccc2oc(-c3cccc(OCC(=O)O)c3)nc2c1`, the Ki [1] was greater than 5 µM and the Ki (GMP reductase 2) was greater than 5 µM.
Compound `COc1ccc(Cc2nc3cc(NC(=O)[C@H](C)Oc4cccc(Cl)c4Cl)ccc3o2)cc1` has a Ki [1] greater than 5 µM and a Ki (GMP reductase 2) greater than 5 µM.
With `C[C@H](Oc1cccc(Cl)c1Cl)C(=O)Nc1ccc2oc(-c3ccc(F)cc3)nc2c1` the Ki [1] was greater than 5 µM, the Ki (GMP reductase 2) was greater than 5 µM and the MIC [2] was greater than 50 µM. It also gave an MIC [3] greater than 50 µM, an MIC [4] greater than 50 µM and an MIC [5] greater than 50 µM.
Work on `C[C@H](Oc1cccc(Cl)c1Cl)C(=O)Nc1ccc2oc(-c3ccc(C(=O)O)cc3)nc2c1` yielded a Ki [1] greater than 5 µM, a Ki (GMP reductase 2) greater than 5 µM and an MIC [2] greater than 50 µM. The Activity [6] was “Active”, the MIC [3] was 5 µM and the MIC [4] was no less than 25 µM. The MIC [5] was 4 µM (≈ 1.89 µg/mL).
`C[C@H](Oc1cccc(Cl)c1Cl)C(=O)Nc1ccc2oc(-c3ccc(C#N)cc3)nc2c1` showed a Ki [1] of 2.3 µM, a Ki (GMP reductase 2) greater than 5 µM and an MIC [2] of 6 µM. The MIC [3] was 5 µM, the MIC [4] was 3 µM (≈ 1.36 µg/mL) and the MIC [5] was 4 µM (≈ 1.81 µg/mL).
`COc1ccc(-c2nc3cc(NC(=O)[C@H](C)Oc4cccc(F)c4F)ccc3o2)cc1` was tested, and the Ki [1] was greater than 5 µM, the Ki (GMP reductase 2) was greater than 5 µM and the MIC [2] was 14 µM. The MIC [3] was 8 µM, the MIC [4] was 4 µM (≈ 1.7 µg/mL) and the MIC [5] was 5 µM (≈ 2.12 µg/mL).
In the case of `COc1ccc(-c2nc3cc(NC(=O)[C@H](C)Oc4cccc(Cl)c4Cl)ccc3o2)cn1`, the Ki [1] is reported as greater than 5 µM, the Ki (GMP reductase 2) is reported as greater than 5 µM and the MIC [2] is reported as greater than 25 µM. For the same compound, the MIC [3] was 9 µM, the MIC [4] was 6 µM (≈ 2.75 µg/mL) and the MIC [5] was 7 µM (≈ 3.21 µg/mL).
`C[C@H](Oc1cccc(Cl)c1Cl)C(=O)Nc1ccc2oc(-c3cccc(O)c3)nc2c1` gave a Ki [1] greater than 5 µM and a Ki (GMP reductase 2) greater than 5 µM.
For `C[C@H](Oc1cccc(F)c1F)C(=O)Nc1ccc2oc(-c3ccc(F)cc3)nc2c1`, the Ki [1] was greater than 5 µM, the Ki (GMP reductase 2) was greater than 5 µM and the MIC [2] was greater than 50 µM. It also gave an MIC [3] greater than 50 µM, an MIC [4] greater than 50 µM and an MIC [5] greater than 50 µM.
`C[C@H](Oc1cccc(Cl)c1Cl)C(=O)Nc1ccc2oc(-c3ccncc3)nc2c1` showed a Ki [1] greater than 5 µM, a Ki (GMP reductase 2) greater than 5 µM and an MIC [2] of 28 µM. The MIC [3] was 37 µM, the MIC [4] was 16 µM (≈ 6.85 µg/mL) and the MIC [5] was 9.4 µM (≈ 4.03 µg/mL).
Work on `C[C@H](Oc1cccc(Cl)c1Cl)C(=O)Nc1ccc2oc(-c3ccc(C(N)=O)cc3)nc2c1` yielded a Ki [1] greater than 5 µM and a Ki (GMP reductase 2) greater than 5 µM.
With `C[C@H](Oc1cccc(Cl)c1Cl)C(=O)Nc1ccc2oc(-c3ccc(OC(F)(F)F)cc3)nc2c1` the Ki [1] was greater than 5 µM, the Ki (GMP reductase 2) was greater than 5 µM and the MIC [2] was greater than 50 µM. The MIC [3] was greater than 50 µM, the MIC [4] was greater than 50 µM and the MIC [5] was greater than 50 µM.
Compound `C[C@H](Oc1cccc(Cl)c1Cl)C(=O)Nc1ccc2oc(-c3cc[n+]([O-])cc3)nc2c1` has a Ki [1] greater than 5 µM and a Ki (GMP reductase 2) greater than 5 µM.
`CCOC(=O)COc1cccc(-c2nc3cc(NC(=O)[C@H](C)Oc4cccc(Cl)c4Cl)ccc3o2)c1` showed a Ki [1] greater than 5 µM, a Ki (GMP reductase 2) greater than 5 µM and an MIC [2] of 1.6 µM. It also gave an MIC [3] of 1.4 µM, an MIC [4] of 1.6 µM (≈ 0.847 µg/mL) and an MIC [5] of 0.9 µM (≈ 0.476 µg/mL).
Compound `C[C@H](Oc1cccc(Cl)c1Cl)C(=O)Nc1ccc2oc(-c3ccccc3O)nc2c1` has a Ki [1] greater than 5 µM and a Ki (GMP reductase 2) greater than 5 µM.
`C[C@H](Oc1cccc(Cl)c1Cl)C(=O)Nc1ccc2oc(-c3ccc(/C(N)=N\O)cc3)nc2c1` showed a Ki [1] greater than 5 µM, a Ki (GMP reductase 2) greater than 5 µM and an MIC [2] greater than 50 µM. For the same compound, the MIC [3] was 25 µM, the MIC [4] was greater than 50 µM and the MIC [5] was 25 µM (≈ 12.1 µg/mL).
`C[C@H](Oc1ccccc1OCc1ccccc1)C(=O)Nc1ccc2oc(-c3ccc(C#N)cc3)nc2c1` showed a Ki [1] greater than 5 µM and a Ki (GMP reductase 2) greater than 5 µM.
Compound `C[C@H](Oc1cccc(F)c1F)C(=O)Nc1ccc2oc(-c3ccc(O)cc3)nc2c1` has a Ki [1] greater than 5 µM, a Ki (GMP reductase 2) greater than 5 µM and an MIC [2] greater than 30 µM. For the same compound, the MIC [3] was 19 µM, the MIC [4] was 7 µM (≈ 2.87 µg/mL) and the MIC [5] was 6 µM (≈ 2.46 µg/mL).
`C[C@H](Oc1cccc(Cl)c1Cl)C(=O)Nc1ccc2oc(-c3ccc(C(=O)NO)cc3)nc2c1` was tested, and the Ki [1] was greater than 5 µM, the Ki (GMP reductase 2) was greater than 5 µM and the MIC [2] was greater than 50 µM. The Activity [6] was “Active”, the MIC [3] was 6 µM and the MIC [4] was 30 µM (≈ 14.6 µg/mL). For the same compound, the MIC [5] was 3 µM (≈ 1.46 µg/mL).
`COc1ccc(-c2nc3cc(NC(=S)[C@H](C)Oc4cccc(Cl)c4Cl)ccc3o2)cc1` gave a Ki [1] greater than 5 µM, a Ki (GMP reductase 2) greater than 5 µM and an MIC [2] greater than 50 µM. For the same compound, the MIC [3] was greater than 50 µM, the MIC [4] was greater than 50 µM and the MIC [5] was 37 µM (≈ 17.5 µg/mL).
Work on `C[C@H](Oc1cccc(Cl)c1Cl)C(=O)Nc1ccc2oc(-c3ccc(O)cc3)nc2c1` yielded a Ki [1] greater than 5 µM and a Ki (GMP reductase 2) greater than 5 µM.
Work on `C[C@H](Oc1cccc2c1B(O)OC2)C(=O)Nc1ccc2oc(-c3ccc(C#N)cc3)nc2c1` yielded a Ki [1] greater than 5 µM and a Ki (GMP reductase 2) greater than 5 µM.
`C[C@H](Oc1cccc(Cl)c1Cl)C(=O)Nc1ccc2oc(-c3ccc(CN)cc3)nc2c1` showed a Ki [1] greater than 5 µM, a Ki (GMP reductase 2) greater than 5 µM and an MIC [2] of 25 µM. It also gave an MIC [3] of 11 µM, an MIC [4] of 25 µM (≈ 11.4 µg/mL) and an MIC [5] of 11 µM (≈ 5.02 µg/mL).
Work on `C[C@H](Oc1cccc(Cl)c1Cl)C(=O)Nc1ccc2oc(-c3ccc(-c4n[nH]c(=O)o4)cc3)nc2c1` yielded a Ki [1] of 2.9 µM, a Ki (GMP reductase 2) greater than 5 µM and an MIC [2] greater than 50 µM. It also gave an MIC [3] greater than 50 µM, an MIC [4] greater than 50 µM and an MIC [5] greater than 50 µM.
`COc1ccc(-c2nc3cc(NC(=O)[C@H](C)Oc4cccc(Cl)c4Cl)ccc3o2)cc1` was tested, and the Ki [1] was greater than 5 µM, the Ki (GMP reductase 2) was greater than 5 µM and the MIC [2] was greater than 50 µM. For the same compound, the MIC [3] was greater than 50 µM, the MIC [4] was greater than 50 µM and the MIC [5] was greater than 50 µM.
`COC(=O)c1ccc(-c2nc3cc(NC(=O)[C@H](C)Oc4cccc(Cl)c4Cl)ccc3o2)cc1` was tested, and the Ki [1] was greater than 5 µM and the Ki (GMP reductase 2) was greater than 5 µM.
Compound `C[C@H](Oc1cccc(F)c1C#N)C(=O)Nc1ccc2oc(-c3ccncc3)nc2c1` has a Ki [1] greater than 5 µM, a Ki (GMP reductase 2) greater than 5 µM and an MIC [2] of 8 µM. It also gave an MIC [3] of 11 µM, an MIC [4] of 4 µM (≈ 1.61 µg/mL) and an MIC [5] of 6 µM (≈ 2.41 µg/mL).
